Columns and labels:
[1] = tested on: human embryonic spinal cord neurons; assay: Survival and neurite outgrowth of human embryonic spinal cord neurons on injured glial cells of the human spinal cord; format: cell-based; details: for survival (numbers) of spinal cord neurons on lesioned glial monolayers / numbers of spinal cord neurons extending long neurites (>100 μm): 72 hrs; for numbers of spinal cord neurons extending long neurites (>100 μm): lesioned glial monolayers
Source text: The CNS tissues were first placed in cold saline. The spinal cord tissues were identified under a stereomicroscope, and carefully freed of meninges. To obtain monolayer cultures of human spinal cord glial cells, the cells were dissociated by mechanical trituration using a Pasteur-pipette, and placed in Petri dishes (Corning, N.Y., USA) containing 10% fetal calf serum (Hyclone, Logan, UH) in DMEM-F12 (Gibco, U.K.) supplemented with penicillin and streptomycin as described (Liesi et al. 2001).
Freshly isolated tissue from the human embryonic spinal cord (8-10 weeks of age) was mechanically dissociated and cells were plated at 50,000 on a 22 mm glass coverslip confluent with human embryonic spinal cord glia. The glial monolayers were injured using a 18 G needle prior to plating of the neurons. The cells were cultured in normal adult human serum for 72 hrs. The numbers of spinal cord neurons on the glial monolayers in the presence or absence of KDI (0.0355 μg/ml-1.0 μg/ml) was estimated on TUJ1-labelled cultures. The statistical analysis was performed using one-way-variance analysis (ANOVA), and the Student-Newman-Keuls multiple comparisons test.
Confluent cultures of the spinal cord glial cells were trypsinized using Trypsin-EDTA, and cells replated at a density of 5×10^4 on a 22 mm glass coverslip. The cells were cultivated until they formed confluent monolayers. At this point, their culture medium was changed into 10% normal adult human serum in DMEM-F12, and glial monolayers were injured using 18 G-needle. After injury, the KDI peptide (Multiple Peptide Systems, La Jolla, Calif., USA) was added into the culture medium after which a suspension of freshly dissociated cells from spinal cord or neocortex was added at 2×10^4 on one coverslip. After 24-48 hrs, the cultures were fixed in 2% paraformaldehyde in PBS, pH 7.4 for 15 min and immunostained for TUJ1 as described previously (Liesi et al., 2001).
Viability and neurite outgrowth of human CNS-neurons on the spinal cord glial cells were evaluated by counting 10 random fields of cells in 6 different cultures. A total of 265 cells were counted. The numbers of long neurites (>10 cell soma) were estimated similarly. One-way-variance analysis (ANOVA) was used to evaluate the results.

[2] = tested on: embryonal bodies of human CNS; assay: Attachment and neurite outgrowth of embryonal bodies on white matter of cryostat sections of adult human spinal cord (myelin influence); format: cell-based; details: 5-10 μg/ml
Experimental: Embryonal bodies containing immature stem cells from spinal cord, or neocortex were obtained by placing the mechanically dissociated CNS-cells on 10 cm Petri dishes (Corning) in Neurobasal medium (Gibco, U.K.) with B27-supplement (Gibco, U.K.), antibiotics and 500 μM L-glutamine.
Cryostat sections (10 μm) of adult normal human spinal cord were cut in coronal plain on SuperFrost Plus slides (Menzel, Germany). Each slide had three sections. The slides with freshly cut sections were immediately placed in sterile Quadriperm-plates (In Vitro Systems & Services, Germany) and 10 ml of culture medium was added. The culture medium was 1.0% normal adult human serum in DMEM-F12 supplemented with penicillin and streptomycin. Two embryonal bodies were placed on areas of white matter on top of each section, and the cultures were placed in the incubator with 5% CO2/95% air at 98% humidity at +37° C. The KDI peptide (Multiple Peptide Systems, La Jolla, Calif.) was added in the medium at 1-10 μg/ml, and the 10-amino acid precursor (RDIAEIIKDI (SEQ ID NO: 1)) was added at equimolar concentrations. The control cultures received no peptide. After 10 days, the cultures were fixed and immunostained for neurofilament proteins and additional neuronal and glial markers to identify the neurites and cells within the embryonal bodies. Numbers of embryonal bodies attached, and extending neurites directly on the adult white matter tissue were counted on each slide and the results analyzed using one-way-variance-analysis (ANOVA). Numbers of long neurites (>100 μm) extending from embryonal bodies in control cultures and in cultures with 5-10 μg/ml of the KDI peptide in the culture medium were counted and a non-parametric Whitney-Mann test was used to analyze those results.

[3] = tested on: spinal cord injuries of adult male rats; assay: Spinal cord injuries of adult male rats: complete lumbar spinal cord transection, mini pump administration; format: in vivo, Sprague-Dawley rats
Experimental: Complete transections of the lumbar spinal cord under deep pentobarbiturate anesthesia were made to 40 adult male Sprague-Dawley rats. Osmotic mini pumps were implanted subcutaneously to allow continuous flow of the KDI peptide (KDI-group) used at pre-tested concentrations (10-100 μg/ml) or a placebo (placebo-group). Morphine was given to both of the groups to alleviate the postoperative pain. The animals underwent weekly tests of their motor function during a period of three months. The motor score testing was carried out using a standard set of tests of motor evaluation (walking, tow-spread, placing and withdrawal). The mini pumps initially provided the drugs for 30 days, and when feasible, additional experiments were carried out with prolonged (up to 3 months) application. After 3 months, the animals in each group were euthanized and spinal cords were either deep frozen for immunocytochemistry, biochemistry and RNA-work, or fixed in 4% paraformaldehyde for in situ hybridization and histological analysis of recovery. […]
Preliminary motor scores were obtained from animals treated with KDI, and from control animals. […] The scores for each animal were calculated by adding up the walking scores obtained within a 12 week follow-up-time after the operation. […] The scores of six animals in placebo-group and six-animals, in the KDI-group were analysed and statistically compared. […]

Substance: KDI
- survival (numbers) of spinal cord neurons on lesioned glial monolayers ([1]; 0.0355 μg/ml): significantly (p<0.001) enhanced survival
- neurite extension of TUJ1-immunoreactive spinal cord neuron on injured glial monolayers ([1]; 0.1 μg/ml in culture medium, 48 hrs): extends a long neurite
- survival (numbers) of spinal cord neurons on lesioned glial monolayers ([1]; 0.1 μg/ml): significantly (p<0.001) enhanced survival
- numbers of spinal cord neurons extending long neurites (>100 μm) ([1]; 0.1 μg/ml, p<0.001): significantly increased the numbers of long neurites
- survival (numbers) of spinal cord neurons on lesioned glial monolayers ([1]; 0.5 μg/ml): did not promote survival of the spinal cord neurons any better than the lesion by itself
- survival (numbers) of spinal cord neurons on lesioned glial monolayers ([1]; 1.0 μg/ml): did not promote survival of the spinal cord neurons any better than the lesion by itself
- numbers of spinal cord neurons extending long neurites (>100 μm) ([1]; 1.0 μg/ml, vs lesion-control): significantly increased the numbers of long neurites
- extension of neurofilament-positive neurites from spinal cord embryonal bodies on white matter ([2]; 10 days in vitro): long neurofilament-positive nerve fibres extend out of the embryonal bodies
- numbers of long neurites extending from embryonal bodies onto white matter ([2]; 10 days in vitro, p<0.0001 vs control): a large number of long neurites extended
- numbers of embryonal bodies attached and sending out neurites on white matter ([2]; 10 days, vs control (p<0.01) and vs P1543 (p<0.01)): significantly higher
- connective tissue scar at the dorsal pole of the spinal cord vs placebo ([3]; adult rats three months after injury, stereomicroscopic images): considerably smaller
- mean motor score (sum of walking scores) ([3]; rats with total spinal cord transection, 12 week follow-up, six animals, ±SEM, placebo 11±2.4, normal animal 120, P 0.0022, preliminary): 78±5.8
